# Assay results taken from patent US20070232575A1, “Treatment of Pulmonary Artery Hypertension with Dhea, Dheas, Dhea Analogs, or Dhea Derivatives” (priority 2004, published 2007).
# Entries after “also recorded” stand apart in the source; their conditions may differ.
# Legend:
# IPA wall = assay: CH-induced intrapulmonary artery (IPA) wall remodeling, media layer thickness; format: in vivo, rat
# Description: Lung sections were formalin-fixed in preparation for histology studies. PA external diameter (PAED), PA internal diameter (PAID), and percentage vessel wall thickness (PAED−PAID)/PAED×100) were measured in small- and medium-sized PAs (80-150 μm). Each group was comprised of four rats, and 10 measures were made per rat by an investigator blinded to the treatment groups.
# CH induces remodeling of the intrapulmonary artery (IPA) in the rat model of CH-PAH. To examine the changes in the IPA wall upon CH exposure, the following method was performed. Isometric contractions were measured in rings from IPAs that were mounted in vertical 5-ml organ baths of a computerized isolated organ bath system (IOX, EMKA Technologies, Paris), as described in Bonnet, S., et al. (2001, Am. J. Physiol. 281, L183-L192, which is incorporated by reference herein in its entirety). Baths were filled with Krebs-Henseleit solution (composition in mM: 118.4 NaCl/4.7 KCl/2.5 CaCl2/1.2 MgSO4/1.2 KH2PO4/25 NaHCO3/11.1 D-glucose, pH 7.4). The baths were maintained at 37° C. and bubbled with a 95% O2/5% CO2 gas mixture. The tissues were set at optimal length by equilibration against a passive load of 10 mN for rings obtained from normoxic rats and 20 mN for rings obtained from hypoxic rats (Jones, J. E., et al. (2002) Am. J. Physiol. 283, H364-H371, which is incorporated by reference herein in its entirety). A cumulative concentration-response curve was then constructed. A concentration increment was made once the maximal contractile effect of the preceding concentration had been recorded.
# systemic circulation = assay: Systemic circulation and cardiac function (systemic blood pressure, heart rate, cardiac output)
# Description: To determine the effect of the chronic hypoxia treatment-induced CH-PAH and to determine the effect of DHEA administration on PAP, the following PAP measurement method was used. Rats were anaesthetized with ketamine 50 mg/kg and xylazine 10 mg/kg by i.p. injection. Mean PAP was measured with 2.5-F catheters inserted into the right jugular vein in closed-chest rats (Bonnet, S., et al. (2002) Cardiovasc. Res. 53, 1019-1028, which is incorporated by reference herein in its entirety). The effect of DHEA on the systemic blood pressure was controlled by another catheter placed into the left carotid artery. Throughout all the experiments, heart rate and oxygen saturation were monitored. Acute hypoxic stress with fraction of inspired O2 of 10% were applied by administration of an air plus nitrogen gas mixture. The fraction of inspired O2 was monitored with an oxygen analyzer (Servomex, Crowborough, Great Britain), and the effects on the PAP were measured over a 10-15 minute period.
# Echocardiography measurements were also performed to determine differences between the treated and control rats. To perform this procedure, the rats were first anaesthetized. After thorax epilation, the animals were placed in the left lateral decubitus position. Resting echocardiography measurements were performed at ambient conditions by using a SONOS 5500 (Philips) echocardiograph and a 12-MHz sector scare transducer. Right and left ventricle wall thickness was measured on M-mode tracings following the recommendations of the American Society of Echocardiology as described by Jones et al. ((2002) Am. J. Physiol. 283, H364-H371). Right cardiac output was evaluated by measuring the electrical R-R delay, the PA diameter, and the velocity time integral (VTI) of PA flux.
# BKCa = assay: Immunoblot of BKCa in arterial pulmonary extracts; format: in vivo, rat; settings: oral DHEA 3 weeks
# Description: The level of expression of BKCa was examined using an immunoblot. Arterial pulmonary extracts were prepared from a pool of eight rats per sample and condition. Three separate samples were taken for each condition. The samples were ground in liquid N2, homogenized in RIPA buffer (1% Nonidet P-40/0.5% deoxycholate sodium/0.1% SDS/10 μg/ml aprotinin/100 μg/ml leupeptin/1 mM 4-(2-aminoethyl)benzenesulfonylfluoride in PBS) with a polytron (Bioblock Scientific), and then centrifuged. The extract was verified by Coomassie blue staining. Each sample was loaded at 10 μg in 7.5% resolving acrylamide gel and electrotransferred on to a nylon membrane. Immunoblot analyses used rabbit mAb against rat BKCa (Alomone Labs, Jerusalem, no. APC-021 at 1/500) and mouse monoclonal anti-actin (Santa Cruz Biotechnology, clone C-2 at 1/500). […] All experiments were repeated two or three times. Quantification of the data was performed using the SCION IMAGE program from the National Institutes of Health.
# [1] = one week oral DHEA treatment in CH rats
compound,measurement,setting,value
"C[C@]12CC[C@H](O)CC1=CC[C@@H]1[C@@H]2CC[C@]2(C)C(=O)CC[C@@H]12 [DHEA, dehydroepiandrosterone]",increase in media layer thickness compared with control rats,"IPA wall; CH-DHEA rats, 3 weeks, CH untreated 33%",11%
same,effect on PA wall remodeling (prevention),IPA wall; oral DHEA 3 weeks during CH,significant protective effect; also recorded: almost entirely prevent; also recorded: prevented the PA wall remodeling
same,effect on PA wall remodeling (reversal),IPA wall; oral DHEA during last week of 3 weeks CH,partially but significantly reversed; also recorded: decreased the PA remodeling
same,cardiac output,systemic circulation; [1],did not affect
same,heart rate,systemic circulation; [1],did not affect
same,systemic pressure,systemic circulation; [1],did not affect
same,cardiac output,systemic circulation; oral DHEA 3 weeks,No significant changes
same,heart rate,systemic circulation; oral DHEA 3 weeks,No significant changes
same,cardiac function,"systemic circulation; oral DHEA 3 weeks, CH-DHEA rats (FIG. 1 D and E)",did not affect
same,systemic blood pressure / systemic circulation,"systemic circulation; oral DHEA 3 weeks, control, DHEA treated and untreated groups",No significant changes; also recorded: did not affect
same,effect on CH-induced decrease of BKCa protein,BKCa,This decrease was prevented; also recorded: up-regulation
same,"immunoreactive signal of BKCa-subunit, CH-DHEA higher than CH",BKCa; three separate comparisons,48.6±5.6%
